In ChEMBL document CHEMBL1201862, “PubChem BioAssay data set” (2004):
Active and inactive are the calls of the source.

Key:
[1] = biological target: Oxysterols receptor LXR-beta (Homo sapiens, UniProt P55055); type: functional, cell-based;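 note: Cell-based luminescence dose-response assay of agonist activity at LXR, run as a confirmatory counterscreen to a daf-12 agonist screen; HEK293 cells with Gal4-LXR fusion and GAL4-driven luciferase reporter; agonist potency from rising luciferase signal of a Gal4-LXR reporter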
[2] = biological target: SWI/SNF-related matrix-associated actin-dependent regulator of chromatin subfamily A member 2 (Homo sapiens, UniProt P51531); assay: Luminescence-based cell-based high throughput dose response assay to identify activators of the function of SWI/SNF related, matrix associated, actin dependent regulator of chromatin, subfamily a, member 2 (SMARCA2, BRM).; type: functional
[3] = Counterscreen for activators of the function of SWI/SNF related, matrix associated, actin dependent regulator of chromatin, subfamily a, member 2 (SMARCA2, BRM): Luminescence-based cell-based high throughput dose response assay to identify non-selective compounds using the VP16 reporter assay.; type: functional
Streptokinase A = biological target: T1, Streptokinase A (Streptococcus pyogenes serotype M1, UniProt P10520); assay: S. pyogenes streptokinase expression inhibitors, potency, dose response, plasminogen activation absorbance, OD405 (AID 1914); type: functional, Streptococcus pyogenes M1 GAS;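 note: secreted streptokinase activity via plasminogen activation per viability signal from cell pellet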
T1 sequence (P10520 whole entry): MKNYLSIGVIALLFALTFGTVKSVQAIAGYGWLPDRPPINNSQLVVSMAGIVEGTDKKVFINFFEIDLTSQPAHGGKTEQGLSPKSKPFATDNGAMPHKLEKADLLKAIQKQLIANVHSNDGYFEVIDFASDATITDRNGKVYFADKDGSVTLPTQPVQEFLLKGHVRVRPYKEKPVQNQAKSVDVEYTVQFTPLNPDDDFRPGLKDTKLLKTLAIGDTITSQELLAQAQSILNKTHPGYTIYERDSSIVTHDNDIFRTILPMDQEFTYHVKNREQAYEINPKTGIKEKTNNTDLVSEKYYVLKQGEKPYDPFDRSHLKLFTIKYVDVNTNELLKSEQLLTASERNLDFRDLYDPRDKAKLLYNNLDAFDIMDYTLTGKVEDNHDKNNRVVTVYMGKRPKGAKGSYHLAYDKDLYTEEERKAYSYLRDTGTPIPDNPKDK

Streptococcus = assay: Group A Streptococcus viability loss, dose response, counter-screen for streptokinase expression inhibitor project, luminescence, BacTiterGlo (AID 1915); type: functional, organism-based;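 note: potency for reduction of bacterial viability or growth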
[4] = tested on: Streptococcus sp. 'group A'; assay: growth inhibition of control SK(-) GAS strain, dose response, counter-screen for streptokinase expression inhibitor project, luminescence, kanamycin, BacTiterGlo, confirmation (AID 1900); type: functional, organism-based
[5] = Vero cell cytotoxicity, dose response, cytotoxicity control for Vif-APOBEC3G degradation inhibitor project, Vero cells (AID 1117358); type: functional; conditions: Human immunodeficiency virus 1, Vero
[6] = biological target: Disintegrin and metalloproteinase domain-containing protein 17 (Homo sapiens, UniProt P78536); assay: exosite inhibitors of ADAM17, dose response, biochemical (AID 743260)
[7] = ADAM10 protease inhibitors, dose response, selectivity assay for ADAM17 exosite inhibitor project, biochemical, FRET peptide substrate, recombinant human ADAM10 (AID 743259);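 note: ADAM10 enzyme cleaving a FRET peptide substrate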
[8] = Luminescence Cell-Based Dose Retest to Confirm Inhibitors of Cancer Stem Cells. [Related pubchem assays (depositor defined):AID2717, AID2721]; type: functional; conditions: Homo sapiens
[9] = Jurkat T cell cytotoxicity, dose response, cytotoxicity control for P. falciparum gametocyte viability project, luminescence (AID 1117277); type: functional, cell-based;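 note: potency reflects loss of cellular ATP meaning fewer viable cells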
[10] = P. falciparum late gametocyte killing, dose response, luminescence (AID 1117278); type: functional, cell-based;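 note: gametocytes exposed to compound for 24 hours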
INS1 = assay: beta cell apoptosis inhibitors, cytokine rescue, dose response, luminescence, retest (AID 449756); type: functional, cell-based; conditions: Rattus norvegicus;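 note: cell death triggered by IL-1 beta plus TNF-alpha plus IFN-gamma mixture; protective hits raise ATP signal compared with cytokine alone wells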
[11] = LGR2 antagonists, dose response, cell-based, HEK293, CRE-luciferase reporter, cherry pick, set 2 (AID 743343); type: functional;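 note: transfected cells were stimulated with diluted bursicon conditioned medium after compound addition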
[12] = HEK293 cell cytotoxicity, dose response, cytotoxicity control, plate reader, cherry-picked samples (AID 743446); type: functional, cell-based
[13] = HepG2 cell cytotoxicity, dose response, cytotoxicity control, plate reader, cherry-pick, antagonist series (AID 743416); type: functional, cell-based
[14] = A549 cell cytotoxicity, dose response, cytotoxicity control, plate reader, cherry-pick, antagonist series (AID 743412); type: functional, cell-based
[15] = biological target: T2, DNA repair protein RAD52 homolog (Homo sapiens, UniProt P43351); type: functional, biochemical
T2 sequence (P43351 whole entry): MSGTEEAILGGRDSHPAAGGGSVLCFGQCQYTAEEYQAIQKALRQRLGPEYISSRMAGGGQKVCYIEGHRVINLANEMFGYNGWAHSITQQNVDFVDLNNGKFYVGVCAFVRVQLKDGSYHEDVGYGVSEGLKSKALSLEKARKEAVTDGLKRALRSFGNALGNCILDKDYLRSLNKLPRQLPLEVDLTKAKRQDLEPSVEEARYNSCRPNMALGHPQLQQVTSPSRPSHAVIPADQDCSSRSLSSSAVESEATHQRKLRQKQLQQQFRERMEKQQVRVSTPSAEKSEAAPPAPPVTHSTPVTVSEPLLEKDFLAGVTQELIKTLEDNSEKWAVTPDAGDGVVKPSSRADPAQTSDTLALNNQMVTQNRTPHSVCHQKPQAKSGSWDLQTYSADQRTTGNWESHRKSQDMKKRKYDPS

[16] = MC4R antagonists, dose response, counter-screen for LGR2 antagonist project, cell-based, plate reader, cherry pick (AID 743444); type: functional;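 note: transfected HEK 293 cells stimulated with alpha-MSH peptide; potency of inhibitors of the alpha-MSH evoked signal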
Paired box protein Pax-8 = Paired box protein Pax-8 (Homo sapiens, UniProt Q06710); assay: inhibitors of PAX8-driven TPO luciferase reporter, dose response, RMG-I cells, cherry-pick (AID 687027); type: functional, cell-based;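 note: luciferase reporter driven by Pax8 target thyroperoxidase promoter measured by SteadyGlo luminescence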
[17] = inhibitors of PGC1a acetylation in cells, dose response, cell-based, cherry-picked samples (AID 720514); type: functional;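 note: potency may reflect raised or lowered acetylation signal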
[18] = cytotoxicity in OVCAR8 ovarian cancer cells, dose response, PAX8 project, cell-based, plate reader, dry powder samples (AID 743197); type: functional; conditions: OVCAR-8
HeLa = assay: HeLa cell cytotoxicity, dose response, cytotoxicity control, ATP luminescence, cherry-pick samples (AID 687004); type: functional, cell-based; conditions: Homo sapiens
[19] = HEK293T cytotoxicity, dose response, cytotoxicity control for miR-122 modulator project, cell-based, inhibitor set, cherry-pick, set 2 (AID 720697); type: functional
[20] = P. falciparum Dd2 growth inhibitors, dose response, SYBR Green, dry powder samples (AID 1159566); type: functional, cell-based;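 note: potency for growth inhibition with lower SYBR green DNA signal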
[21] = P. falciparum 3D7-ScDHODH growth inhibitors, dose response, SYBR Green, dry powder samples (AID 1159570); type: functional, cell-based;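 note: parasite growth measured after 72 hours of compound exposure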
[22] = P. falciparum ATP4 D1247Y mutant growth inhibitors, dose response, NITD609-resistant line, SYBR Green, dry powder (AID 1159571); type: functional, cell-based;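 note: parasites synchronized at ring stage by sorbitol before testing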
[23] = P. falciparum Dd2 growth inhibitors, dose response, SYBR Green, cherry-picked samples (AID 1159567); type: functional, cell-based
[24] = Concentration-dependent survival of SW480 colon cancer line, luminescence detection with CellTiter-Glo, half-maximal inhibitory concentration (AID 1117338); type: functional
[25] = SNU-C1 cell viability reduction, dose response, CellTiter-Glo luminescence (AID 1117323); type: functional, cell-based
[26] = HCT116 cell viability decrease, GSK3B pretreatment – CellTiter-Glo, IC50, dose response (AID 1117339); type: functional; conditions: HCT-116
[27] = cytotoxicity toward HCT116 cells – cell-based, CellTiter-Glo luminescence, IC50, dose response (AID 1117332); type: functional; conditions: HCT-116
[28] = cytotoxicity toward HT-29 cells – cell-based, CellTiter-Glo luminescence, IC50, dose response (AID 1117330); type: functional
[29] = cytotoxicity toward Colo320 cells – cell-based, CellTiter-Glo luminescence, IC50, dose response (AID 1117334); type: functional; conditions: COLO 320
[30] = RKO cell viability reduction, dose response, CellTiter-Glo luminescence (AID 1117322); type: functional
[31] = CellTiter-Glo luminescent dose response of DLD-1 viability loss (AID 1117352); type: functional
[32] = HeLa 2N DNA content increase, dose response, cell-based, IC50 (AID 1117349); type: functional
[33] = half-maximal inhibitory concentration for glucagon-like peptide-1 release, STC-1 cell line, dose-response (AID 1117345); type: functional, cell-based
[34] = Glucagon-like peptide 1 release potency, NCI-H716 cell line, dose-response, half-maximal inhibitory concentration (AID 1117344); type: functional, cell-based
[35] = biological target: Photoreceptor-specific nuclear receptor (Homo sapiens, UniProt Q9Y5X4); type: functional, cell-based;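 note: CHO-S cells with Gal4-NCOR and VP16-NR2E3 two-hybrid luciferase reporter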
[36] = HeLa 4N DNA content increase, dose response, cell-based, IC50 (AID 1117351); type: functional

SWI/SNF-related matrix-associated actin-dependent regulator of chromatin subfamily A member 2, sequence (P51531 whole entry): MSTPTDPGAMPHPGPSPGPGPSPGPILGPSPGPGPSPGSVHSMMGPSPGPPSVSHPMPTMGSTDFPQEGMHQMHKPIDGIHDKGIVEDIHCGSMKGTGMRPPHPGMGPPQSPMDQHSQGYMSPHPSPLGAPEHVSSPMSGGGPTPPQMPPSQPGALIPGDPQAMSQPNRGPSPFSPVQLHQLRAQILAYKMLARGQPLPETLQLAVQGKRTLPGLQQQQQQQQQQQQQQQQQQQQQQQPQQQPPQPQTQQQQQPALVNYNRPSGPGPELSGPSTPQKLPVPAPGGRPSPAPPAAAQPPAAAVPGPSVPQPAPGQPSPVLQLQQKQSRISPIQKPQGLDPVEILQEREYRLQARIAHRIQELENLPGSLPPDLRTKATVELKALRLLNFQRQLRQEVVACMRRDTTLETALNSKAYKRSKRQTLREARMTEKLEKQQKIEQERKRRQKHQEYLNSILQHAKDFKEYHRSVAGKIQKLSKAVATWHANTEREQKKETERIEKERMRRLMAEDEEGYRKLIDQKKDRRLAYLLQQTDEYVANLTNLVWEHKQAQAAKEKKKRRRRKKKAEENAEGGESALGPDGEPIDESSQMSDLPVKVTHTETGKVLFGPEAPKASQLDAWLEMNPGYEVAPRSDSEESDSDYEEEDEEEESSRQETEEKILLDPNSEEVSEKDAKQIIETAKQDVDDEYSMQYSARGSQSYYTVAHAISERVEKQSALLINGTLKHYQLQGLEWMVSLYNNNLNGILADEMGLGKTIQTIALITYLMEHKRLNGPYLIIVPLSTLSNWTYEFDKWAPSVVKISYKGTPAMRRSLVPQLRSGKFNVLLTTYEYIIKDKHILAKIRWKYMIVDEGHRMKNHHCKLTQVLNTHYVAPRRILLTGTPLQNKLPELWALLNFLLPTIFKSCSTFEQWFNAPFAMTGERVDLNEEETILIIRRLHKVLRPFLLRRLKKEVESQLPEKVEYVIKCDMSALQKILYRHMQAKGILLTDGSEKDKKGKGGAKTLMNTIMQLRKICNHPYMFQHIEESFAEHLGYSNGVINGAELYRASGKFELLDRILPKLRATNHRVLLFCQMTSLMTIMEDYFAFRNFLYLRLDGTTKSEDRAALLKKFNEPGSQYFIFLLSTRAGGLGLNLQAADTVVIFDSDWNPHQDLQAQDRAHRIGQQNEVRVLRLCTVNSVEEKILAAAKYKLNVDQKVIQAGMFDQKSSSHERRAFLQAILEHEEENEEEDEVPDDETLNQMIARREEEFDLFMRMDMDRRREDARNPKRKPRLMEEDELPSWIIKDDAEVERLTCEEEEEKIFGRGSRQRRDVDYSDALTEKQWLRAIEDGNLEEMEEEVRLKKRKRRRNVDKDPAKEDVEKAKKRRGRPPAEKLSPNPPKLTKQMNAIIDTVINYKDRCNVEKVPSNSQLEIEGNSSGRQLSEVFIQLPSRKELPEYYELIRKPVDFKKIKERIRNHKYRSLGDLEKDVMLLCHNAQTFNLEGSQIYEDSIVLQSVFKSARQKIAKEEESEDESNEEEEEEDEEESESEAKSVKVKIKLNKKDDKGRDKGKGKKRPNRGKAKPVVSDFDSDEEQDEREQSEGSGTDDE
Disintegrin and metalloproteinase domain-containing protein 17, sequence (P78536 whole entry, the tested form may be a part): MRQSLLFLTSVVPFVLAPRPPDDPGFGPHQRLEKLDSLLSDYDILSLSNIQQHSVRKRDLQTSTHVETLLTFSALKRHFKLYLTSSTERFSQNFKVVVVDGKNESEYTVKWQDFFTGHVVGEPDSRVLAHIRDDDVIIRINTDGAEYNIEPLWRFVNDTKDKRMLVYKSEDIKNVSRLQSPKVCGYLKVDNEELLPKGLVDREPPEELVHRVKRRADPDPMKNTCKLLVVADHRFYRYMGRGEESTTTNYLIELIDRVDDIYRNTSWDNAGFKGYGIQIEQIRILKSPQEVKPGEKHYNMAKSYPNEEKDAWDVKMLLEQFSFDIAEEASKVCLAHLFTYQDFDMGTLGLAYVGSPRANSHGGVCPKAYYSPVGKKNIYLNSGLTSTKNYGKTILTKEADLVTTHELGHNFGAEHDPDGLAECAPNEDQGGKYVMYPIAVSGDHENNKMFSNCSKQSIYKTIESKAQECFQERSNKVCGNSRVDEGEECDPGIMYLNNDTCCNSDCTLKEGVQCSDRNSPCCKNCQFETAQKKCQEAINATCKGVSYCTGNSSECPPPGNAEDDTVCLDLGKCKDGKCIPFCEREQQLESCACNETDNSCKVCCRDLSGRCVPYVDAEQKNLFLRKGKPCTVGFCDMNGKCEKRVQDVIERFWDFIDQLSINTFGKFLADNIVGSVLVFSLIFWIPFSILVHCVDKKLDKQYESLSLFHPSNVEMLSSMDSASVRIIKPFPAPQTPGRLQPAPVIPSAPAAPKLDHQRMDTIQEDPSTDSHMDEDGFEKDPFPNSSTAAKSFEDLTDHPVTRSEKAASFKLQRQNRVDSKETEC
Paired box protein Pax-8, sequence (Q06710 whole entry): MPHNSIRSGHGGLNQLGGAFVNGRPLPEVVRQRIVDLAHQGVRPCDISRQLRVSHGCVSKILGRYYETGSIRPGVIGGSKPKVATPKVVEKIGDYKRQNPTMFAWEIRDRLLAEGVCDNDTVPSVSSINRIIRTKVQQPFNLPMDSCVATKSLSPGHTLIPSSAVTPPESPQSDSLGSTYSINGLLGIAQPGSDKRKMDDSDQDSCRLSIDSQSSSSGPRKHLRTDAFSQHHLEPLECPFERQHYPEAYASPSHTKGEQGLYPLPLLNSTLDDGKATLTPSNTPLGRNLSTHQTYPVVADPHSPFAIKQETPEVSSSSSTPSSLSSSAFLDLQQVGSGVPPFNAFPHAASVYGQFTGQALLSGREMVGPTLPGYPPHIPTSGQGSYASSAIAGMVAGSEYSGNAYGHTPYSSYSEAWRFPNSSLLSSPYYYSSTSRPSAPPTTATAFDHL
Photoreceptor-specific nuclear receptor, sequence (Q9Y5X4 whole entry, the tested form may be a part): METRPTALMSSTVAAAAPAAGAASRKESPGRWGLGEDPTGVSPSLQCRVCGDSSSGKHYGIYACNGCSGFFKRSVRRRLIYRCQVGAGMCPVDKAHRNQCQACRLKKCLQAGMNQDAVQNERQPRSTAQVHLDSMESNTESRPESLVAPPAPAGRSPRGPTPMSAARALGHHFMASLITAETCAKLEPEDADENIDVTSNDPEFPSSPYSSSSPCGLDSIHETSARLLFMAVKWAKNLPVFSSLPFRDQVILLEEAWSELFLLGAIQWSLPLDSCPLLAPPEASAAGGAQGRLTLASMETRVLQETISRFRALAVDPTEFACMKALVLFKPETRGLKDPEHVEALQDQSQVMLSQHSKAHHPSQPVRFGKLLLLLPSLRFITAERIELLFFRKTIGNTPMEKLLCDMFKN
Oxysterols receptor LXR-beta, sequence (P55055 whole entry, the tested form may be a part): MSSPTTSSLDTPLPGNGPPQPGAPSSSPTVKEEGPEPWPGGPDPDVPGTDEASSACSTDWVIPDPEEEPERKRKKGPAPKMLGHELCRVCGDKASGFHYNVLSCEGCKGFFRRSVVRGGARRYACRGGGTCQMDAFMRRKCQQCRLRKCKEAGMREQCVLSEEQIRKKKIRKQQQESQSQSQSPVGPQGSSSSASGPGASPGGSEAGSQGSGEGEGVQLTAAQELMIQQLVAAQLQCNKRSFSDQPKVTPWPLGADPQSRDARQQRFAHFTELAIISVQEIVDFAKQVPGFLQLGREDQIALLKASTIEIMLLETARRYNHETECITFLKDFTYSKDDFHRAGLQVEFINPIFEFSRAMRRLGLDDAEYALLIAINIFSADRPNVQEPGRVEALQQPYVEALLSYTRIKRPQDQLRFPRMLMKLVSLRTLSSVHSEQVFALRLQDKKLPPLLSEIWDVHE

Cc1nn(-c2ccc(Cl)cc2)c(=O)c2ccccc12
EC50 (cells): > 67.5 µM (inactive) | EC50 [1]: > 67.5 µM (inactive)

O=C(CN1CCCCC1)Nc1c2c(nc3ccccc13)N(c1ccccc1)CC2
EC50 [2]: > 91.2 µM (inactive) | EC50 [3]: > 91.2 µM (inactive)

O=c1c2c(nc(NCCO)n1CC1CCCCC1)-c1ccccc1CC21CCCC1
EC50 (Streptokinase A): 3.48 µM (active) | EC50 (Streptococcus): 19.3 µM (inconclusive) | EC50 [4]: 2.67 µM (active) | CC50 [5]: > 40 µM (active)

O=S(=O)(c1ccccc1)N(CC(O)Cn1c2ccccc2c2ccccc21)c1ccccc1 (stereo unspecified)
IC50 [6]: > 69.5 µM (inactive) | IC50 [7]: > 69.5 µM (inactive) | AC50 [8]: 3.66 µM (active)

O=c1c2ccccc2ncn1CCCCOc1ccc(Br)cc1
IC50 [9]: > 83.3 µM (inactive) | IC50 [10]: > 109 µM (inactive)

c1ccc2c(NCCCN3CCOCC3)c3ccccc3nc2c1
AC50 (INS1): 2.33 µM (active) | AC50 [11]: 21 µM (active) | AC50 [12]: 3.16 µM (active) | AC50 [13]: 3.54 µM (active) | AC50 [14]: 3.28 µM (active) | AC50 [15]: 1.06 µM (active) | EC50 [2]: > 3.38 µM (active) | AC50 [16]: 31.3 µM (active) | EC50 [3]: > 91.2 µM (inactive)

CCOC(=O)C1=CN(Cc2cccc(F)c2)S(=O)(=O)NC1c1ccc2ccccc2c1 (stereo unspecified)
IC50 [6]: > 69.5 µM (inactive) | IC50 [7]: > 7.73 µM (active)

O=C(Nc1cccc(C(=O)N2CCOCC2)c1)c1ccccc1
IC50 [9]: > 83.3 µM (inactive) | IC50 [10]: > 109 µM (inactive)

C[C@@H]1CCCCO[C@H](CN(C)Cc2ccc(Cl)c(Cl)c2)[C@H](C)CN([C@@H](C)CO)C(=O)c2cc(NC(=O)Nc3ccc(F)cc3)ccc2O1
AC50 (Paired box protein Pax-8): 11.3 µM (active) | AC50 [17]: 14.3 µM (active) | AC50 [18]: 65.1 µM (active)

CC(C)CC#Cc1ccc2c(c1)O[C@@H](CN(C)C(=O)C1CCC1)[C@@H](C)CN([C@H](C)CO)S2(=O)=O
AC50 (HeLa): > 52 µM (inactive)

COCC(=O)Nc1ccc2c(c1)C(=O)N(C)[C@@H]1CC[C@@H](CC(=O)OC)O[C@@H]1CO2
AC50 [19]: < 0.195 µM (active)

C[C@H](CO)N1C[C@H](C)[C@@H](CN(C)C(=O)Nc2ccc(-c3ccccc3)cc2)OCc2ccccc2-c2c(n(C)c3ccccc23)C1=O
AC50 [20]: 0.544 µM (active) | AC50 [21]: 0.684 µM (active) | AC50 [22]: 0.577 µM (active) | AC50 [23]: 1.41 µM (active)

[H]/C=C\c1c(C)c2cc3nc(cc4[nH]c(cc5nc(cc1[nH]2)C(C)=C5CCC(=O)O)c(CCC(=O)OC)c4C)[C@@]1(C)C3=CC=C(C(=O)OC)[C@@H]1C(=O)OC
IC50 [24]: > 6.67 µM (inactive) | IC50 [25]: 5.85 µM (inactive) | IC50 [26]: 4.26 µM (active) | IC50 [27]: 5.65 µM (inactive) | IC50 [28]: 3.94 µM (active) | IC50 [29]: 9.62 µM (inactive) | IC50 [30]: 3.53 µM (active)

CC(C)NCC(O)COc1ccc(CCOCC2CC2)cc1 (stereo unspecified) [BETAXOLOL]
IC50 [31]: > 20 µM (inactive) | IC50 [24]: > 20 µM (inactive) | IC50 [25]: > 20 µM (inactive) | IC50 [27]: > 20 µM (inactive) | IC50 [28]: > 20 µM (inactive) | IC50 [29]: 6.17 µM (inactive) | IC50 [30]: > 20 µM (inactive)

CCC(C)(C)C(=O)O[C@H]1C[C@@H](C)C=C2C=C[C@H](C)[C@H](CC[C@@H]3C[C@@H](O)CC(=O)O3)[C@H]21 [SIMVASTATIN]
IC50 [31]: > 20 µM (inactive) | IC50 [32]: > 10 µM (inactive) | IC50 [25]: > 20 µM (inactive) | IC50 [33]: 3.29 µM (active) | IC50 [26]: 4.73 µM (active) | IC50 [34]: 21.5 µM (inactive) | IC50 [27]: > 20 µM (inactive) | IC50 [28]: > 20 µM (inactive) | IC50 [35]: 1.16 µM (active) | IC50 [36]: > 10 µM (inactive) | IC50 [29]: 4.94 µM (active) | IC50 [30]: > 20 µM (inactive)
